# Reference: PubChem BioAssay (NCI)
# Where “and” joins values, the source holds several entries; their conditions need not be identical. Equal values may be shown once.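 Cultured in 96-well plates, cells were exposed to test compound for 48 hours across five concentrations. GI50 = concentration required for 50% inhibition of growth. TGI marks complete inhibition of growth.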
# Experiments:
# Assay in all cases: NCI-60 cell line screen, 48 h
# [1] = tested on: NCI-H522 lung
# [2] = tested on: SK-MEL-2 melanoma
# [3] = tested on: SNB-75 CNS
# [4] = tested on: BT-549 breast
# [5] = tested on: SNB-19 CNS
# [6] = tested on: IGROV1 ovarian
# [7] = tested on: MOLT-4 leukemia
# [8] = tested on: HOP-92 NSCLC
# [9] = tested on: CAKI-1 renal
# [10] = tested on: PC-3 prostate
Structure (SMILES),GI50 [1],TGI [1],GI50 [2],TGI [2],GI50 [3],TGI [3],TGI [4],GI50 [5],TGI [5],GI50 [6],TGI [6],GI50 [7],TGI [7],GI50 [8],TGI [8],GI50 [9],TGI [9],TGI [10],GI50 [4],GI50 [10]
CCN(CC)CC[n+]1ccc2c(C)c3[nH]c4ccccc4c3c(C)c2c1,0.247 µM,1.36 µM and 2.58 µM and 1.87 µM,1.4 µM,1.56 µM and 3.43 µM and 1.29 µM,0.148 µM,1.14 µM and 0.847 µM and 1.23 µM,4.95 µM,0.251 µM,1.41 µM and 1.48 µM and 1.33 µM,0.365 µM and 1.21 µM and 0.786 µM,3.45 µM and 11.2 µM and 5.33 µM,0.274 µM,1.59 µM and 6.02 µM and 3.27 µM,0.342 µM and 0.833 µM and 0.242 µM,1.94 µM and 4.34 µM and 2.71 µM,8.97 µM,10.3 µM and > 38.3 µM and 7.08 µM,3.18 µM,–,–
O=[N+]([O-])/C(Cl)=C(\NCCO)C(Cl)=C(Cl)Cl,–,53 µM,–,> 100 µM,–,> 100 µM,> 100 µM,–,> 100 µM,–,> 100 µM,–,63.6 µM,–,> 100 µM,–,> 100 µM,> 100 µM,–,–
COc1ccc(-c2c(/C=N/OCC(=O)O)c3sc4ccccc4n3c2/C=N/OCC(=O)O)cc1,–,> 50 µM,–,> 50 µM,–,> 50 µM,> 50 µM,–,> 50 µM,–,> 50 µM,–,> 50 µM,–,> 50 µM,–,> 50 µM,> 50 µM,–,–
COC(=O)CCCc1nc2ccccc2nc1N=Nc1ccccc1,–,68.5 µM,–,> 100 µM,–,> 100 µM,> 100 µM,–,> 100 µM,–,> 100 µM,–,26.3 µM,–,> 100 µM,–,> 100 µM,> 100 µM,–,–
CN(C)Cc1cc(/C=C/C(=O)c2ccc(Br)cc2)cc(CN(C)C)c1O,–,–,–,90.5 µM,–,43.7 µM,34.4 µM,–,48.2 µM,–,23.4 µM,–,42.9 µM,–,–,–,23.8 µM,> 100 µM,–,–
Cc1cc2ccccc2n2c1nc1ccc(O)cc12,–,> 10 µM,–,> 10 µM,–,> 10 µM,> 10 µM,–,> 10 µM,–,> 10 µM,–,> 10 µM,–,–,–,> 10 µM,> 10 µM,–,–
CCOC(=O)C1=C(N2CCCC2)C(=O)C(C(=O)OCC)C1 (stereo not drawn),–,> 100 µM,–,> 100 µM,–,> 100 µM,> 100 µM,–,> 100 µM,–,> 100 µM,–,> 100 µM,–,> 100 µM,–,> 100 µM,> 100 µM,–,–
C#CCn1c(I)cc2c(c1=O)COC(=O)[C@]2(O)CC,–,> 100 µM,–,> 100 µM,–,> 100 µM,> 100 µM,–,> 100 µM,–,> 100 µM,–,> 100 µM,–,> 100 µM,–,> 100 µM,> 100 µM,–,–
Cc1cc(C)c(S(=O)(=O)N(CCCCCN)OCCCN)c(C)c1,–,–,–,35.1 µM,–,30.9 µM,32.4 µM,–,37.6 µM,–,30 µM,–,33 µM,–,31 µM,–,31.2 µM,28.8 µM,–,–
Cc1cccc(NC(=S)Nc2cccc(Cl)c2)n1,–,> 100 µM,–,> 100 µM,–,> 100 µM,> 100 µM,–,> 100 µM,–,> 100 µM,–,> 100 µM,–,–,–,> 100 µM,> 100 µM,–,–
CSCCC(NC(=O)C(Cc1c[nH]c2ccccc12)NC(=O)CCNC(=O)OC(C)(C)C)C(=O)NC(CC(=O)O)C(=O)NC(Cc1ccccc1)C(N)=O (stereo not drawn),–,> 50 µM,–,> 50 µM,–,> 50 µM,> 50 µM,–,–,–,> 50 µM,–,> 50 µM,–,> 50 µM,–,> 50 µM,> 50 µM,–,–
COc1ccc(/C=C/C(=O)c2cc(CN(C)C)c(O)c(CN(C)C)c2)cc1,–,43.2 µM,–,–,–,> 100 µM,72.9 µM,–,> 100 µM,–,> 100 µM,–,> 100 µM,–,–,–,> 100 µM,85.8 µM,–,–
C/C(CC(O)(C(F)(F)F)C(F)(F)F)=N\O,–,> 10 µM,–,> 10 µM,–,> 10 µM,> 10 µM,–,> 10 µM,–,> 10 µM,–,> 10 µM,–,> 10 µM,–,> 10 µM,> 10 µM,–,–
CC(C)(C)N=C1C(=O)C2(C)CCC1C2(C)C (stereo not drawn),–,–,–,> 100 µM,–,–,> 100 µM,–,> 100 µM,–,> 100 µM,–,–,–,–,–,> 100 µM,> 100 µM,–,–
COC1OC(C)/C(=N/O)C2OC(C)(C)OC12 (stereo not drawn),–,> 100 µM,–,–,–,–,> 100 µM,–,> 100 µM,–,> 100 µM,–,> 100 µM,–,> 100 µM,–,> 100 µM,> 100 µM,–,–
O=C(NCc1cn(Cc2cccc(Oc3ccccc3)c2)nn1)c1cccnc1NCc1ccc(Cl)cc1,2.18 µM,5.68 µM,4.44 µM,> 100 µM,2.02 µM,7.77 µM,7.63 µM,3.91 µM,> 100 µM,9.03 µM,> 100 µM,3.28 µM,8.76 µM,–,–,4.36 µM,> 100 µM,> 100 µM,2.72 µM,2.96 µM
CC1(C)Cc2ccccc2C(C)(Cl)C(=O)N1 (stereo not drawn),–,–,–,–,–,–,> 10 µM,–,> 10 µM,–,> 10 µM,–,> 10 µM,–,> 10 µM,–,> 10 µM,> 10 µM,–,–
C[C@H](NC(=O)C(C)(Cc1ccc(O)cn1)NC(=O)c1ccccc1)c1ccccc1 (stereo partly drawn),–,> 100 µM,–,> 100 µM,–,–,> 100 µM,–,> 100 µM,–,> 100 µM,–,> 100 µM,–,> 100 µM,–,> 100 µM,> 100 µM,–,–
C#CC(O)/C=C/C(O)CCCC(O)CC#CC(O)C#CCCCCC(O)/C=C/CCCC(=O)CCCCCCCCCCCCCCCC(O)C(O)C#CC(=O)O (stereo not drawn),–,17.1 µM,–,> 25 µM,–,> 25 µM,–,–,> 25 µM,–,> 25 µM,–,> 25 µM,–,> 25 µM,–,> 25 µM,> 25 µM,–,–
CCC1OC2(C)CC(C#N)(C#N)C1(C#N)C(=N)O2 (stereo not drawn),–,–,–,> 100 µM,–,> 100 µM,> 100 µM,–,> 100 µM,–,> 100 µM,–,> 100 µM,–,> 100 µM,–,> 100 µM,> 100 µM,–,–
C[C@@H]1C[C@@H]2OC(=O)[C@]3(C)[C@H]2[C@@H](OC3(C)O)[C@]2(C)C(=O)C=C[C@@H]12 (stereo partly drawn),–,23.8 µM,–,54.7 µM,–,> 100 µM,23.1 µM,–,> 100 µM,–,–,–,39.7 µM,–,38.9 µM,–,62.1 µM,> 100 µM,–,–
Clc1cc(Cl)nc(Nc2ccc3c(c2)CCC3)n1,–,–,–,> 100 µM,–,–,> 100 µM,–,> 100 µM,–,72.3 µM,–,69.6 µM,–,> 100 µM,–,75.7 µM,> 100 µM,–,–
